pEC50: −log10 of the molar value. Numbered stars: 1 amine (or outer) side, 2 acyl side, 3 side chain; on linkers, the order of the positions; unused ones are H or OH. Square brackets hold non-standard residues; d marks the D form. Side chains are listed from the residue outwards. Peptide text beside a SMILES is read from it. * marks the point of attachment. C18 diacid = O=C(O)CCCCCCCCCCCCCCCCC(=O)*; γGlu = O=C(O)[C@H](CCC(=O)[*:2])N[*:1]; Ac4c = NC1(C(=O)O)CCC1; Aib = CC(C)(N)C(=O)O

In this test the target is T1, human GLP-1 receptor (Homo sapiens, UniProt P43220).
T1 construct: expressed in transfected cells; host or cells: BHK cells (parent BHKTS13), clone FCW467-12A/KZ10-1, with CRE luciferase
The test can be described thus: GLP-1 receptor potency, CRE luciferase reporter gene assay in BHK cells. The class given is cell-based. As to conditions: BHK cells expressing human GLP-1 receptor, read-out: EC50 GLP-1R. An outline of the steps: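 Potency as cAMP-driven firefly luciferase signal after 3 h, 37° C exposure to 10-fold dilutions (final 1×10EE-13–1×10EE-6 M). Stable hGLP-1R/CRE-luc BHK clone, 5×10EE3 cells/well, medium containing 2% ovalbumin and 0.2% Pluronic F-68; EC50 (pM) from variable-slope non-linear regression.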
(In general: In a reporter assay the amount or activity of a reporter protein is the signal.)

T1 sequence (P43220 24-463): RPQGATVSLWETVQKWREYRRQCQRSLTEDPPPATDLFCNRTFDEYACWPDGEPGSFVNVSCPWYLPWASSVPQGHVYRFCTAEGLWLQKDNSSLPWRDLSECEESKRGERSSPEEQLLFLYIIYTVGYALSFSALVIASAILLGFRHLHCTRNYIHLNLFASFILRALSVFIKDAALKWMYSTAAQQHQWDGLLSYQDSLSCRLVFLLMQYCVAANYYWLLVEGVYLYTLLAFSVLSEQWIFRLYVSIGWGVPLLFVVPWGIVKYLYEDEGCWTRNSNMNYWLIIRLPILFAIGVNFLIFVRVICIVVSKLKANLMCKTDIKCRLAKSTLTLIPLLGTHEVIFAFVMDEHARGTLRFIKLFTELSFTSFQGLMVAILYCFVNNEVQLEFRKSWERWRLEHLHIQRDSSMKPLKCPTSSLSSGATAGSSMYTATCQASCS

With `CC(C)C[C@H](NC(=O)[C@H](Cc1ccc(O)cc1)NC(=O)[C@H](CCCCN)NC(=O)[C@H](CO)NC(=O)[C@H](CC(C)C)NC(=O)[C@H](CC(=O)O)NC(=O)[C@H](CO)NC(=O)[C@@H](NC(=O)[C@H](Cc1ccccc1)NC(=O)[C@@H](NC(=O)CNC(=O)[C@H](CCC(N)=O)NC(=O)C(C)(C)NC(=O)[C@@H](N)Cc1c[nH]cn1)[C@@H](C)O)[C@@H](C)O)C(=O)N[C@@H](CCC(=O)O)C(=O)N[C@@H](CO)C(=O)N[C@@H](CCCNC(=N)N)C(=O)N[C@@H](CCCNC(=N)N)C(=O)N[C@@H](C)C(=O)N[C@@H](CCCNC(=N)N)C(=O)N[C@@H](CCC(=O)O)C(=O)N[C@@H](Cc1ccccc1)C(=O)N[C@H](C(=O)N[C@@H](CCC(N)=O)C(=O)N[C@@H](Cc1c[nH]c2ccccc12)C(=O)N[C@@H](CC(C)C)C(=O)N[C@@H](CC(C)C)C(=O)N[C@@H](CCCCNC(=O)CC[C@H](NC(=O)CC[C@H](NC(=O)[C@H](CO)NC(=O)[C@H](CCC(=O)O)NC(=O)[C@H](CO)NC(=O)CC[C@H](NC(=O)CC[C@H](NC(=O)CCCCCCCCCCCCCCCCC(=O)O)C(=O)O)C(=O)O)C(=O)O)C(=O)O)C(=O)N[C@H](C(N)=O)[C@@H](C)O)C(C)C` [Example 67, N^ε28-[(4S)-4-carboxy-4-[[(4S)-4-carboxy-4-[[(2S)-2-[[(2S)-4-carboxy-2-[[(2S)-2-[[(4S)-4-carboxy-4-[[(4S)-4-carboxy-4-(17-carboxyheptadecanoylamino)butanoyl]amino]butanoyl]amino]-3-hydroxypropanoyl]amino]butanoyl]amino]-3-hydroxypropanoyl]amino]butanoyl]amino]butanoyl]-[Aib2,Leu10,Glu15,Arg20,Glu21,Leu27,Lys28]-Glucagon amide] (H-H[Aib]QGTFTSDLSKYLESRRAREFVQWLLK([γGlu-γGlu-Ser-Glu-Ser-γGlu-γGlu-C18 diacid])T-NH2; N-terminus assumed), the pEC50 was 11.40. Regarding `CC(C)C[C@H](NC(=O)[C@H](Cc1ccc(O)cc1)NC(=O)[C@H](CCCCN)NC(=O)[C@H](CO)NC(=O)[C@H](CC(C)C)NC(=O)[C@H](CC(=O)O)NC(=O)[C@H](CO)NC(=O)[C@@H](NC(=O)[C@H](Cc1ccccc1)NC(=O)[C@@H](NC(=O)CNC(=O)[C@H](CCC(N)=O)NC(=O)C1(NC(=O)[C@@H](N)Cc2c[nH]cn2)CCC1)[C@@H](C)O)[C@@H](C)O)C(=O)N[C@@H](CCC(=O)O)C(=O)N[C@@H](CO)C(=O)N[C@@H](CCCCN)C(=O)N[C@@H](CCCNC(=N)N)C(=O)N[C@@H](C)C(=O)N[C@@H](CCCNC(=N)N)C(=O)N[C@@H](CCC(=O)O)C(=O)N[C@@H](Cc1ccccc1)C(=O)N[C@H](C(=O)N[C@@H](CCC(N)=O)C(=O)N[C@@H](Cc1c[nH]c2ccccc12)C(=O)N[C@@H](CC(C)C)C(=O)N[C@@H](CC(C)C)C(=O)N[C@@H](CCCCNC(=O)CC[C@H](NC(=O)CC[C@H](NC(=O)[C@H](CO)NC(=O)[C@H](CCC(=O)O)NC(=O)[C@H](CO)NC(=O)CC[C@H](NC(=O)CC[C@H](NC(=O)CCCCCCCCCCCCCCCCC(=O)O)C(=O)O)C(=O)O)C(=O)O)C(=O)O)C(=O)N[C@H](C(N)=O)[C@@H](C)O)C(C)C` [Example 68, N^ε28-[(4S)-4-carboxy-4-[[(4S)-4-carboxy-4-[[(2S)-2-[[(2S)-4-carboxy-2-[[(2S)-2-[[(4S)-4-carboxy-4-[[(4S)-4-carboxy-4-(17-carboxyheptadecanoylamino)butanoyl]amino]butanoyl]amino]-3-hydroxypropanoyl]amino]butanoyl]amino]-3-hydroxypropanoyl]amino]butanoyl]amino]butanoyl]-[Acb2,Leu10,Glu15,Lys17,Arg20,Glu21,Leu27,Lys28]-Glucagon amide] (H-H[Ac4c]QGTFTSDLSKYLESKRAREFVQWLLK([γGlu-γGlu-Ser-Glu-Ser-γGlu-γGlu-C18 diacid])T-NH2; N-terminus assumed), the negative-log EC50 (pEC50) was 11.15. On to `CC(C)C[C@H](NC(=O)[C@H](Cc1ccc(O)cc1)NC(=O)[C@H](CCCCN)NC(=O)[C@H](CO)NC(=O)[C@H](CC(C)C)NC(=O)[C@H](CC(=O)O)NC(=O)[C@H](CO)NC(=O)[C@@H](NC(=O)[C@H](Cc1ccccc1)NC(=O)[C@@H](NC(=O)CNC(=O)[C@H](CCC(N)=O)NC(=O)C(C)(C)NC(=O)[C@@H](N)Cc1c[nH]cn1)[C@@H](C)O)[C@@H](C)O)C(=O)N[C@@H](CCC(=O)O)C(=O)N[C@@H](CO)C(=O)N[C@@H](CCCCN)C(=O)N[C@@H](CCCNC(=N)N)C(=O)N[C@@H](C)C(=O)N[C@@H](CCCNC(=N)N)C(=O)N[C@@H](CO)C(=O)N[C@@H](Cc1ccccc1)C(=O)N[C@H](C(=O)N[C@@H](CCC(N)=O)C(=O)N[C@@H](Cc1c[nH]c2ccccc12)C(=O)N[C@@H](CC(C)C)C(=O)N[C@@H](CC(C)C)C(=O)N[C@@H](CCCCNC(=O)CC[C@H](NC(=O)CC[C@H](NC(=O)[C@H](CO)NC(=O)[C@H](CCC(=O)O)NC(=O)[C@H](CO)NC(=O)CC[C@H](NC(=O)CC[C@H](NC(=O)CCCCCCCCCCCCCCCCC(=O)O)C(=O)O)C(=O)O)C(=O)O)C(=O)O)C(=O)N[C@H](C(N)=O)[C@@H](C)O)C(C)C` [Example 69, N^ε28-[(4S)-4-carboxy-4-[[(4S)-4-carboxy-4-[[(2S)-2-[[(2S)-4-carboxy-2-[[(2S)-2-[[(4S)-4-carboxy-4-[[(4S)-4-carboxy-4-(17-carboxyheptadecanoylamino)butanoyl]amino]butanoyl]amino]-3-hydroxypropanoyl]amino]butanoyl]amino]-3-hydroxypropanoyl]amino]butanoyl]amino]butanoyl]-[Aib2,Leu10,Glu15,Lys17,Arg20,Ser21,Leu27,Lys28]-Glucagon amide] (H-H[Aib]QGTFTSDLSKYLESKRARSFVQWLLK([γGlu-γGlu-Ser-Glu-Ser-γGlu-γGlu-C18 diacid])T-NH2; N-terminus assumed), for which the pEC50 was 11.15.

As usually defined, the pEC50 is −log10 of the EC50, conventionally taken in molar units.

These data come from US9474790B2, “Stable, protracted GLP-1/glucagon receptor co-agonists for medical use” (Novo Nordisk A/S, priority 2013, dated 2016).
